From ChEMBL document CHEMBL5303573, “Mapping human microbiome drug metabolism by gut bacteria and their genes” (Nature, 2019)

Legend:
[1] = The drug is tested on Ruminococcus lactaris strain: ATCC29176 for biotransformation. The drug concentrations were measured before and after a 12-h incubation by liquid-chromatography-coupled mass spectrometry (LC–MS); conditions: 2 µM
[2] = bacteroides fragilis, 12 h, 2 µM
Description: The drug is tested on Bacteroides fragilis strain: 3397 (T10) for biotransformation. The drug concentrations were measured before and after a 12-h incubation by liquid-chromatography-coupled mass spectrometry (LC–MS)

[3] = The drug is tested on Eubacterium ventriosum strain: ATCC27560 for biotransformation. The drug concentrations were measured before and after a 12-h incubation by liquid-chromatography-coupled mass spectrometry (LC–MS); type: ADME; design: dose 2 uM, timepoint 0 vs 12 hours; conditions: 2 µM
[4] = enterocloster bolteae, 12 h, 2 µM
Description: The drug is tested on Clostridium bolteae strain: ATCCBAA-613 for biotransformation. The drug concentrations were measured before and after a 12-h incubation by liquid-chromatography-coupled mass spectrometry (LC–MS)

[5] = The drug is tested on Coprococcus comes strain: ATCC27758 for biotransformation. The drug concentrations were measured before and after a 12-h incubation by liquid-chromatography-coupled mass spectrometry (LC–MS); type: ADME; design: dose 2 uM, timepoint 0 vs 12 hours; conditions: 2 µM
[6] = The drug is tested on Edwardsiella tarda strain: ATCC23685 for biotransformation. The drug concentrations were measured before and after a 12-h incubation by liquid-chromatography-coupled mass spectrometry (LC–MS); conditions: 2 µM
[7] = The drug is tested on Clostridium symbiosum strain: ATCC14940 for biotransformation. The drug concentrations were measured before and after a 12-h incubation by liquid-chromatography-coupled mass spectrometry (LC–MS); conditions: 2 µM
[8] = parabacteroides johnsonii, 12 h, 2 µM
Description: The drug is tested on Parabacteroides johnsonii strain: DSM18315 for biotransformation. The drug concentrations were measured before and after a 12-h incubation by liquid-chromatography-coupled mass spectrometry (LC–MS)

[9] = The drug is tested on Bacteroides pectinophilus strain: ATCC43243 for biotransformation. The drug concentrations were measured before and after a 12-h incubation by liquid-chromatography-coupled mass spectrometry (LC–MS); conditions: 2 µM
[10] = The drug is tested on Providencia rettgeri strain: DSM1131 for biotransformation. The drug concentrations were measured before and after a 12-h incubation by liquid-chromatography-coupled mass spectrometry (LC–MS); type: ADME; design: dose 2 uM, timepoint 0 vs 12 hours; conditions: 2 µM
[11] = The drug is tested on Enterobacter cancerogenus strain: ATCC35316 for biotransformation. The drug concentrations were measured before and after a 12-h incubation by liquid-chromatography-coupled mass spectrometry (LC–MS); conditions: 2 µM
[12] = The drug is tested on Alistipes indistinctus strain: DSM22520 for biotransformation. The drug concentrations were measured before and after a 12-h incubation by liquid-chromatography-coupled mass spectrometry (LC–MS); conditions: 2 µM
[13] = The drug is tested on Bacteroides caccae strain: ATCC43185 for biotransformation. The drug concentrations were measured before and after a 12-h incubation by liquid-chromatography-coupled mass spectrometry (LC–MS); conditions: 2 µM
[14] = The drug is tested on Bacteroides fragilis strain: ATCC43859 for biotransformation. The drug concentrations were measured before and after a 12-h incubation by liquid-chromatography-coupled mass spectrometry (LC–MS); conditions: 2 µM
[15] = bacteroides intestinalis, 12 h, 2 µM
Description: The drug is tested on Bacteroides intestinalis strain: DSM17393 for biotransformation. The drug concentrations were measured before and after a 12-h incubation by liquid-chromatography-coupled mass spectrometry (LC–MS)

[16] = The drug is tested on Ruminococcus gnavus strain: ATCC29149 for biotransformation. The drug concentrations were measured before and after a 12-h incubation by liquid-chromatography-coupled mass spectrometry (LC–MS); conditions: mediterraneibacter gnavus, 2 µM
[17] = bacteroides thetaiotaomicron, 12 h, 2 µM
Description: The drug is tested on Bacteroides thetaiotaomicron strain: 7330 for biotransformation. The drug concentrations were measured before and after a 12-h incubation by liquid-chromatography-coupled mass spectrometry (LC–MS)

[18] = The drug is tested on Subdoligranulum variabile strain: DSM15176 for biotransformation. The drug concentrations were measured before and after a 12-h incubation by liquid-chromatography-coupled mass spectrometry (LC–MS); conditions: 2 µM
[19] = The drug is tested on Escherichia coli strain: BW25113 for biotransformation. The drug concentrations were measured before and after a 12-h incubation by liquid-chromatography-coupled mass spectrometry (LC–MS); conditions: 2 µM
[20] = The drug is tested on Clostridium ramosum strain: DSM1402 for biotransformation. The drug concentrations were measured before and after a 12-h incubation by liquid-chromatography-coupled mass spectrometry (LC–MS); conditions: thomasclavelia ramosa, 2 µM

Row | Bacterial Biotransformation [19] | Bacterial Biotransformation [20] | Compound | Bacterial Biotransformation [1] | Bacterial Biotransformation [2] | Bacterial Biotransformation [3] | Bacterial Biotransformation [4] | Bacterial Biotransformation [5] | Bacterial Biotransformation [6] | Bacterial Biotransformation [7] | Bacterial Biotransformation [8] | Bacterial Biotransformation [9] | Bacterial Biotransformation [10] | Bacterial Biotransformation [11] | Bacterial Biotransformation [12] | Bacterial Biotransformation [13] | Bacterial Biotransformation [14] | Bacterial Biotransformation [15] | Bacterial Biotransformation [16] | Bacterial Biotransformation [17] | Bacterial Biotransformation [18]
1 |  |  | Nc1nc(N)nc(-c2cc(Cl)ccc2Cl)n1.O=C(O)/C=C\C(=O)O [IRSOGLADINE MALEATE] | Compound NOT metabolized | Compound NOT metabolized | Compound NOT metabolized | Compound NOT metabolized | Compound NOT metabolized | Compound NOT metabolized | Compound NOT metabolized | Compound metabolized | Compound NOT metabolized | Compound NOT metabolized | Compound NOT metabolized | Compound NOT metabolized | Compound NOT metabolized | Compound NOT metabolized | Compound NOT metabolized | Compound NOT metabolized | Compound NOT metabolized | Compound NOT metabolized
2 | Compound NOT metabolized | Compound NOT metabolized | CCN(CC)CCNC(=O)c1cc(Cl)c(N)cc1OC [METOCLOPRAMIDE] | Compound NOT metabolized | Compound NOT metabolized | Compound NOT metabolized | Compound NOT metabolized | Compound NOT metabolized | Compound NOT metabolized | Compound NOT metabolized | Compound NOT metabolized | Compound NOT metabolized | Compound NOT metabolized | Compound NOT metabolized |  | Compound NOT metabolized | Compound NOT metabolized | Compound NOT metabolized | Compound NOT metabolized | Compound NOT metabolized | Compound NOT metabolized
3 |  |  | Cc1ccnc2c1NC(=O)c1cccnc1N2C1CC1 [NEVIRAPINE] | Compound NOT metabolized |  | Compound NOT metabolized | Compound NOT metabolized | Compound NOT metabolized | Compound NOT metabolized | Compound NOT metabolized | Compound NOT metabolized | Compound NOT metabolized | Compound NOT metabolized | Compound NOT metabolized | Compound NOT metabolized | Compound NOT metabolized | Compound NOT metabolized | Compound NOT metabolized | Compound NOT metabolized | Compound NOT metabolized | Compound NOT metabolized
4 |  |  | O=C(O)CCc1nc(-c2ccccc2)c(-c2ccccc2)o1 [OXAPROZIN] | Compound NOT metabolized |  | Compound NOT metabolized | Compound NOT metabolized | Compound NOT metabolized | Compound NOT metabolized | Compound NOT metabolized | Compound metabolized | Compound NOT metabolized | Compound NOT metabolized | Compound NOT metabolized | Compound NOT metabolized |  | Compound metabolized | Compound metabolized | Compound NOT metabolized | Compound metabolized | Compound NOT metabolized
